Measurements from paper PMC11513920, “Building Metabolically Stable and Potent Anti-HIV Thioether-Lipid Analogues of Tenofovir Exalidex: A thorough Pharmacological Analysis” (Journal of Medicinal Chemistry, 2024).
Where “and” joins values, the source holds several entries; their conditions need not be identical. Equal values may be shown once.

Assays:
[1] = Mouse liver microsome stability; conditions: CD-1, mouse, microsomes
Protocol: (§1) Human liver microsomes (HLMs, 20 mg/mL) and CD-1 mouse liver microsomes (MLMs, 20 mg/mL) were purchased from Xenotech. NADPH was purchased from Sigma-Aldrich and prepared in 10 mM stock solutions of distilled H2O (Invitrogen UltraPure). […] Test compounds and positive controls were initially dissolved in MeOH to make 10 mM stock solutions. Sample solutions were then further diluted in 70/30 MeOH/H2O to 500 μM. Next, the reactions were prepared by mixing human or mouse liver microsomes (55 μL) with potassium phosphate buffer (100 mM, 928 μL) in 1.5 mL Eppendorf tubes. The test compounds (6.6 μL of 500 μM solution) were subsequently added to the suspensions, and the reaction mixtures were incubated at 37 °C for 5 min. Afterward, the liver microsome reactions were initiated with 110 μL of 10 mM NADPH and further incubated at 37 °C for the designated time course of the study. […] Each test compound was run in tandem with positive and negative control experiments for quality assurance. Positive control reactions were conducted at a final volume of 550 μL for a single run of each time point.
(§2) For both LM and plasma stability assays, each data point was analyzed in duplicate using in-between blank washes to avoid carry over and to equilibrate the column for the subsequent runs. Averages of these duplicate for individual compounds at each time point were then normalized to the data at 0 min, representing 100% test compound remaining or 0% metabolism. Half-lives (t1/2) were calculated by plotting ln of % test compound remaining versus time and performing linear regression to determine slope.
(§3) Metabolic Stability Assays
(§4) Liver Microsome Stability
(§5) Liver Microsome Stability Assay Setup Example
(§6) Quenching Mixture: 100 µL MeOH with ISTD (2 µM d5-7-ethoxycoumarin).
(§7) Final Volume After Quenching: 200 µL (100 µL from reaction mixture + 100 µL quencher
(§8) solution; ISTD final concentration of 1.0 µM).

Human plasma stability = assay type: in vitro ADME; conditions: for remaining at 4 h, 3 μM / half-life at 3 μM: both sexes, human, plasma; for half-life at 3 μM: 37 °C, 240 min course, read-out: human plasma t1/2
Protocol: (§9) Human plasma (lithium heparin (LiHep) mixed, gender pooled, 0.2 μm filtered) and mouse plasma (BALB/C, LiHep mixed, male pooled, 0.2 μm filtered) were purchased from BioIVT. Procaine (Sigma-Aldrich) served as a positive control for both human and mouse plasma experiments. […] Next, the human or mouse plasma (994 μL) was aliquoted into 1.5 mL Eppendorf tubes with duplicates (reactions A and B) being prepared for each compound. The plasma was then incubated at 37 °C for 10 min. […] This procedure provided duplicate experiments with a final volume of 1000 μL (<0.2% organic solvent content) and a final test compound concentration of 3 μM. Aliquots (100 μL) were removed from each reaction mixture at 0, 30, 60, 120, and 240 min time intervals and quenched with 150 μL of cold ISTD solution (2 μM 7-ethoxy-d5-coumarin in MeOH). […] The positive control reaction was conducted at a final volume of 1000 μL for a single run of each time point. Finally, the negative control experiment was conducted with test compounds in Dulbecco’s phosphate buffered saline without calcium and magnesium (DPBS, Fisher Scientific, 143 μL) and analyzed at the 240 min time point.
(§10) Plasma Stability Assay Setup Example
(§11) Test Compound: 994 µL Human or Mouse Plasma + 6.0 µL TC (500 µM, Vial A).
(§12) 994 µL Human or Mouse Plasma + 6.0 µL TC (500 µM, Vial B).
(§13) Positive Control: 994 µL Human or Mouse Plasma + 6.0 µL Procaine (500 µM).
(§14) Negative Control: 142 µL DPBS (1X, pH 7.1-7.3) + 0.9 µL TC (500 µM).
(§15) Quenching Mixture: 150 µL MeOH with ISTD (2 µM d5-7-ethoxycoumarin).
(§16) Final Volume After Quenching: 250 µL (100 µL from reaction mixture and 150 µL quencher
solution; ISTD final concentration of 1.2 µM).
Human Plasma Stability of Compound 2a at 37 °C
Figure S29. In vitro human plasma stability of 2a (5 points over 240 min) with procaine serving

[2] = Human liver microsome stability; conditions: for remaining at 2 h, 3 μM / half-life at 3 μM: human, microsomes; for remaining at 2 h, 3 μM: HLM % remaining, relative percent remaining of prodrug at 120 min; for half-life at 3 μM: HLM t1/2, HLM 1 mg/mL
Protocol: as §1, §2, §3, §4, §5, §6, §7, §8

Mouse plasma stability = assay type: in vitro ADME; conditions: for mouse plasma t1/2: 3 μM, 37 °C, 240 min course; for remaining at 4 h, 3 μM / half-life at 3 μM: male, BALB/C, mouse, plasma; for half-life at 3 μM: read-out: in vitro mouse plasma stability t1/2
Protocol: as §9, §10, §11, §12, §13, §14, §15, §16
solution; ISTD final concentration of 1.2 µM). […]

HepaRG cellular uptake = conditions: human, HepaRG Cmax, 20 μM, HSA formulation 5:1, recorded after 3 h incubation
Description: (§17) Naturally, due the metabolic complexity of HepaRG cells, we specifically analyzed prodrug cellular uptake and stability, as represented by Cmax and intrinsic clearance (Clint,u) accordingly (Figure 7 and Table 9).
(§18) The HepaRG cell line (HPRGC10, Thermo Fisher Scientific) was used to evaluate the cellular permeability and metabolic stability for select final compounds in vitro. The cells were initially thawed with working media composed of HepaRG Thaw, Plate, & General Purpose Medium Supplement (HPRG670), Williams Medium E (100 mL), and GlutaMax (1 mL), all purchased from Thermo Fisher Scientific. […] After the thawing medium was aspirated from each well, the cells were cultured for an additional 6 days with working media consisting of HepaRG Maintenance/Metabolism Medium Supplement (HPRG720), Williams Medium E (500 mL), and GlutaMax (1 mL), all purchased from Thermo Fisher Scientific. Upon completing the 7-day culture period, HepaRG cells were plated in enough wells to allow for duplicate analysis of prodrugs in two independent cellular uptake or metabolic stability experiments. All studied compounds were formulated with human serum albumin (HSA, 5:1 compound to HSA molar ratio) and subsequently diluted to a 20 μM final concentration with assay medium composed of serum-free INVITROGRO HI Medium and TORPEDO Antibiotic Mix purchased from BioIVT. For cellular uptake determinations, the maintenance/metabolism medium was first aspirated from each well, and then the plated cells were spiked with 1.0 mL of test compound stock solution. Subsequently, the plate was incubated at 37 °C under 5% CO2 environment over the desired time course (seven data points/compound). Blank wells not treated with prodrug were included in assay runs as controls and initial time points (0 min). At each time point, the test compound solution was removed from the appropriate wells, and the plated cells were washed with 1.0 mL of DPBS twice. The HepaRG cells were then extracted with 500 μL of cold ISTD solution (1 μM 7-ethoxy-d5-coumarin in 70/30 MeOH/H2O), and the quenched aliquots were centrifuged at 15,000 g for 10 min at 4 °C. […] After obtaining prodrug Cmax and Tmax values from the cellular uptake assay, HepaRG metabolic stability was then assessed. Following the initial 7-day culture procedure, the maintenance/metabolism medium was aspirated from each well, and the plated cells were spiked with 1.0 mL of test compound stock solution. […] The test compound solution was then removed from each well and replaced with untreated dilution medium (i.e., serum-free INVITROGRO HI Medium and TORPEDO Antibiotic Mix), initializing the stability determination. The HepaRG plate was once more incubated at 37 °C under 5% CO2 atmosphere over the desired time course (nine data points/compound), and sample preparation and analysis were handled in identical fashion to cellular uptake experiments.

HepaRG cells = experiment: HepaRG cellular uptake; conditions: for mean prodrug concentration in HepaRG cells: 20 µM; for HepaRG Cmax: 20 μM, HSA formulation 5:1, recorded after 3 h incubation
Description: as §17, §18

[3] = relative percent remaining at 240 min
[4] = 3 μM compound, NADPH, 37 °C, 120 min course

Structure (SMILES)	half-life at 3 μM [1] [h]	remaining at 2 h, 3 μM [1] [%]	remaining at 4 h, 3 μM (Human plasma stability; [3]) [%]	half-life at 3 μM (Human plasma stability) [h]	remaining at 2 h, 3 μM [2] [%]	half-life at 3 μM [2, 4] [h]	mouse plasma t1/2 (Mouse plasma stability) [h]	remaining at 4 h, 3 μM (Mouse plasma stability; [3]) [%]	half-life at 3 μM (Mouse plasma stability) [h]	Cmax at 3 h, 20 μM (HepaRG cellular uptake) [ng/mL]	mean prodrug concentration in HepaRG cells (HepaRG cells; 0.5 h) [ng/mL]	mean prodrug concentration in HepaRG cells (HepaRG cells; 1 h) [ng/mL]	mean prodrug concentration in HepaRG cells (HepaRG cells; 2 h) [ng/mL]	mean prodrug concentration in HepaRG cells (HepaRG cells; 3 h) [ng/mL]	mean prodrug concentration in HepaRG cells (HepaRG cells; 5 h) [ng/mL]	mean prodrug concentration in HepaRG cells (HepaRG cells; 7 h) [ng/mL]	HepaRG Cmax (HepaRG cells) [ng/mL]	human plasma % remaining (Human plasma stability; [3]) [%]	HLM t1/2 ([2]; HLM 1 mg/mL, 3 μM compound, NADPH, 37 °C, 120 min course)	mouse plasma % remaining (Mouse plasma stability; [3]) [%]
C[C@H](Cn1cnc2c(N)ncnc21)OCP(=O)(O)OCCCSCCCCCCCCCCCCC1CCCCC1.N [16h]	> 2	> 95	> 95	> 4	85	> 2	> 4	71	> 4	1410	896.16	911.53	1178.12	1412.37	1533.37	1616.17	1412.4 ± 1.5	–	–	–
CCCCCCCCCCCCCCCCSCCCOP(=O)(O)CO[C@H](C)Cn1cnc2c(N)ncnc21.N [2a]	> 2	> 95	95	> 4	–	–	> 4	95	> 4	828 ± 0.2	467.27	530.17	676.9	827.97	1004.64	994.36	–	> 95	0.7 h and 0.695 ± 0.0383 h	> 95
C[C@H](Cn1cnc2c(N)ncnc21)OCP(=O)(O)OCCCSCCCCCCCCCCCCc1ccc(F)cc1.N [16g]	> 2	88	> 95	> 4	69	> 2	> 4	> 95	> 4	210	124.04	162.75	178.18	209.81	203.98	229.08	209.8 ± 0.2	–	–	–
